Laboratory results published in patent US6908935B2, “Calcium receptor modulating agents” (Amgen Inc., priority 2002, dated 2005).

Target: T1, human parathyroid cell Ca^2+ receptor (hPCaR) (Homo sapiens, UniProt P41180)
T1 construct: expressed in transfected cells
T1 sequence (P41180 20-1078): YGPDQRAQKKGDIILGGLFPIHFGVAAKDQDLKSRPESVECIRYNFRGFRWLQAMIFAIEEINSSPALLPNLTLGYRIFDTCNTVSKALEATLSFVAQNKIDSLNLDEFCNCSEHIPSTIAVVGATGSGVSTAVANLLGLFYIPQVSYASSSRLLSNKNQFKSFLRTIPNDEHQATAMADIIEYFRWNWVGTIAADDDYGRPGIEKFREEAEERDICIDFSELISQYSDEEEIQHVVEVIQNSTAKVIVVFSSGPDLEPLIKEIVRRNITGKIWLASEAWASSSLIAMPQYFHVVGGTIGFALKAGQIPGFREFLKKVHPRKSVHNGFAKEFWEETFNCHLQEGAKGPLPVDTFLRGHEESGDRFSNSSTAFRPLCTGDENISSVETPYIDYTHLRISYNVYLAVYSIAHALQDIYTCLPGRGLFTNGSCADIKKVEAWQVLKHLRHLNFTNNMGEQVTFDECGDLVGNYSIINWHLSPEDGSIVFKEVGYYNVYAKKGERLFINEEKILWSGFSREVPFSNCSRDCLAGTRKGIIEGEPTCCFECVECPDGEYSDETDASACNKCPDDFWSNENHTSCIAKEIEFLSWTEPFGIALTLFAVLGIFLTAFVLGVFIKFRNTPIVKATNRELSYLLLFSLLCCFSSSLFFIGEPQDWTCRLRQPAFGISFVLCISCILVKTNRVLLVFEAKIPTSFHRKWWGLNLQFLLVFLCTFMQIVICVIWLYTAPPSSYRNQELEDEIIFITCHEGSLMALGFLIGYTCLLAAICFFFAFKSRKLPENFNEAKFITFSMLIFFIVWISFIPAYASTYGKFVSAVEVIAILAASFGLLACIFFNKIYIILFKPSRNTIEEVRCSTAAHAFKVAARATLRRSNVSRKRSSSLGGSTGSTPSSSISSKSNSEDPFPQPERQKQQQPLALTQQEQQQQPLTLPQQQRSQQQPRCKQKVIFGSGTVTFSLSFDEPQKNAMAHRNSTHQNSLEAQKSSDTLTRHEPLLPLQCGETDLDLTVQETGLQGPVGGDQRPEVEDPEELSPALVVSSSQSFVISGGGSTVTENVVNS
Test: [Ca2+]i measurement with fluo-3 in HEK 293 4.0-7 cells stably transfected with hPCaR
Assay type: cell-based
Conditions: fluo-3 fluorescence (485/530 nm), effect on [Ca^2+]i
Experimental: The activities of the compounds of the present invention on calcium receptors were measured. In one embodiment, the measurement was performed in accordance with the method described in Example 4 of Nemeth et al., PCT/US95/13704 (International Publication No. WO96/12697) herein incorporated by reference.
A 4.0-kb NotI-HindIII fragment of the human parathyroid cell Ca^2+ receptor (hPCaR) cDNA was subcloned into the mammalian expression vector pCEP4 (Invitrogen) containing the hygromycin-resistant gene as a selectable marker. This plasmid was transfected into HEK 293 cells by calcium phosphate precipitation. Transfected cells were grown in Dulbecco's modified Eagle's medium containing 10% fetal bovine serum and hygromycin (200 μg/mL). Hygromycin-resistant colonies were subcloned and assayed for hPCaR mRNA by solution hybridization using a ^32P-labeled RNA probe complementary to the (4.0 kb) hPCaR sequence (Garrett, et al., J. Biol. Chem. 270, 12919-12925 (1995)). Clone 7 was used to assess the effects of compounds on [Ca^2+]i. This stably transfected cell line is termed HEK 293 4.0-7. For measurements of [Ca^2+]i, the cells were recovered from tissue culture flasks by brief treatment with 0.02% EDTA and then washed and resuspended in PCB containing 1 mM CaCl2 and 0.1% Bovine Serum Albumin (“BSA”). The cells were loaded with fluo-3 by incubation for 30 min at 37° C., with parathyroid cell buffer (126 mM NaCl, 4 mM KCl, 1 mM MgSO4, 0.7 mM K2HPO/KH2PO4, 20 mM HEPES.NaOH (pH 7.45)) containing 0.5% BSA in lmM CaCl2 and 2 μM fluo-3 acetoxymethyl ester. The cells were subsequently washed, each test compound was added to the cells and the fluorescence was recorded by using excitation and emission wavelengths of 485 and 530 nm, respectively.

Molecule `COc1ccc(CN[C@H](C)c2ccccc2)cc1-c1ccc(C(N)=O)cc1` [2′-(methyloxy)-5′-((((1R)-1-phenylethyl)amino)methyl)-1,1′-biphenyl-4-carboxamide] has an EC50 of at most 10 µM.

In the case of `COc1ccc(CN[C@H](C)c2ccccc2)cc1-c1cccnc1NCCCN1CCOCC1` [3-(2-(methyloxy)-5-((((1R)-1-phenylethyl)amino)methyl)phenyl)-N-(3-(4-morpholinyl)propyl)-2-pyridinamine], the EC50 is reported as at most 10 µM.

Molecule `COc1ccc(CN[C@H](C)c2ccccc2)cc1-c1cccnc1NCC1CCCO1` (stereo partly drawn) [3-(2-(methyloxy)-5-((((1R)-1-phenylethyl)amino)methyl)phenyl)-N-(tetrahydro-2-furanylmethyl)-2-pyridinamine] has an EC50 of at most 10 µM.

`COc1ccc(CN[C@H](C)c2ccccc2)cc1-c1csc(N)n1` [4-(2-(methyloxy)-5-((((1R)-1-phenylethyl)amino)methyl)phenyl)-1,3-thiazol-2-amine] gave an EC50 of at most 10 µM.

With `COc1ccc([C@@H](C)NCc2cccc(-c3ccc(NC(=O)CCC(=O)O)nc3)c2)cc1` [4-((5-(3-((((1R)-1-(4-(methyloxy)phenyl)ethyl)amino)methyl)phenyl)-2-pyridinyl)amino)-4-oxobutanoic acid] the EC50 was at most 10 µM.

With `C[C@@H](NCc1cccc(-c2ccc(NC(=O)CCC(=O)O)nc2)c1)c1ccccc1` [4-oxo-4-((5-(3-((((1R)-1-phenylethyl)amino)methyl)phenyl)-2-pyridinyl)amino)butanoic acid] the EC50 was at most 10 µM.

`COc1ccc(CN[C@H](C)c2cccc3ccccc23)cc1-c1cncc(C(N)=O)c1` [5-(2-(methyloxy)-5-((((1R)-1-(1-naphthalenyl)ethyl)amino)methyl)phenyl)-3-pyridinecarboxamide] was tested, and the EC50 was at most 10 µM.

With `COc1ccc(CN[C@H](C)c2ccc3ccccc3c2)cc1-c1cnc(N)nc1` [5-(2-(methyloxy)-5-((((1R)-1-(2-naphthalenyl)ethyl)amino)methyl)phenyl)-2-pyrimidinamine] the EC50 was at most 10 µM.

With `COc1ccc(CN[C@H](C)c2ccc3ccccc3c2)cc1-c1cncc(C(N)=O)c1` [5-(2-(methyloxy)-5-((((1R)-1-(2-naphthalenyl)ethyl)amino)methyl)phenyl)-3-pyridinecarboxamide] the EC50 was at most 10 µM.

Work on `COc1cccc([C@@H](C)NCc2ccc(OC)c(-c3ccc(C(=O)O)o3)c2)c1` [5-(2-(methyloxy)-5-((((1R)-1-(3-(methyloxy)phenyl)ethyl)amino)methyl)phenyl)-2-furancarboxylic acid] yielded an EC50 of at most 10 µM.

With `COc1ccc(CN[C@H](C)c2ccc(C)cc2)cc1-c1cnc(N)nc1` [5-(2-(methyloxy)-5-((((1R)-1-(4-methylphenyl)ethyl)amino)methyl)phenyl)-2-pyrimidinamine] the EC50 was at most 10 µM.

Molecule `COc1ccc(CN[C@H](C)c2ccc(C)cc2)cc1-c1cncc(C(N)=O)c1` [5-(2-(methyloxy)-5-((((1R)-1-(4-methylphenyl)ethyl)amino)methyl)phenyl)-3-pyridinecarboxamide] has an EC50 of at most 10 µM.

`COc1ccc(CN[C@H](C)c2ccccc2)cc1-c1ccc(=O)n(CC(F)(F)F)c1` [5-(2-(methyloxy)-5-((((1R)-1-phenylethyl)amino)methyl)phenyl)-1-(2,2,2-trifluoroethyl)-2(1H)-pyridinone] showed an EC50 of at most 10 µM.

`COc1ccc(CN[C@H](C)c2ccccc2)cc1-c1ccc(N)nc1` [5-(2-(methyloxy)-5-((((1R)-1-phenylethyl)amino)methyl)phenyl)-2-pyridinamine] showed an EC50 of at most 10 µM.

With `COc1ccc(CN[C@H](C)c2ccccc2)cc1-c1cncc(C(N)=O)c1` [5-(2-(methyloxy)-5-((((1R)-1-phenylethyl)amino)methyl)phenyl)-3-pyridinecarboxamide] the EC50 was at most 10 µM.

`COc1cccc([C@@H](C)NCc2cccc(-c3cncc(C(N)=O)c3)c2)c1` [5-(3-((((1R)-1-(3-(methyloxy)phenyl)ethyl)amino)methyl)phenyl)-3-pyridinecarboxamide] gave an EC50 of at most 10 µM.

In the case of `C[C@@H](NCc1cccc(-c2ccccn2)c1)c1cccc2ccccc12` [(1R)-1-(1-naphthalenyl)-N-((3-(2-pyridinyl)phenyl)methyl)ethanamine], the EC50 is reported as at most 10 µM.

With `C[C@@H](NCc1cccc(-c2ccc(C(F)(F)F)nc2)c1)c1cccc2ccccc12` [(1R)-1-(1-naphthalenyl)-N-((3-(6-(trifluoromethyl)-3-pyridinyl)phenyl)methyl)ethanamine] the EC50 was at most 10 µM.

`C[C@@H](NCc1ccc(OCC(F)(F)F)c(-c2ccc(C(F)(F)F)cc2)c1)c1cccc2ccccc12` [(1R)-1-(1-naphthalenyl)-N-((6-((2,2,2-trifluoroethyl)oxy)-4′-(trifluoromethyl)-1,1′-biphenyl-3-yl)methyl)ethanamine] gave an EC50 of at most 10 µM.

`C[C@@H](NCc1cccc(-c2ccccn2)c1)c1ccc2ccccc2c1` [(1R)-1-(2-naphthalenyl)-N-((3-(2-pyridinyl)phenyl)methyl)ethanamine] was tested, and the EC50 was at most 10 µM.

`COCCOc1cccc([C@@H](C)NCc2ccc(OC)c(-c3ccc(C(F)(F)F)cc3)c2)c1` [(1R)-1-(3-((2-(methyloxy)ethyl)oxy)phenyl)-N-((6-(methyloxy)-4′-(trifluoromethyl)-1,1′-biphenyl-3-yl)methyl)ethanamine] showed an EC50 of at most 10 µM.

In the case of `COc1cccc([C@@H](C)NCc2cccc(-c3nccs3)c2)c1` [(1R)-1-(3-(methyloxy)phenyl)-N-((3-(1,3-thiazol-2-yl)phenyl)methyl)ethanamine], the EC50 is reported as at most 10 µM.

`COc1cccc([C@@H](C)NCc2cccc(-c3cnccn3)c2)c1` [(1R)-1-(3-(methyloxy)phenyl)-N-((3-(2-pyrazinyl)phenyl)methyl)ethanamine] gave an EC50 of at most 10 µM.

With `COc1cccc([C@@H](C)NCc2cccc(-c3ccccn3)c2)c1` [(1R)-1-(3-(methyloxy)phenyl)-N-((3-(2-pyridinyl)phenyl)methyl)ethanamine] the EC50 was at most 10 µM.

`COc1cccc([C@@H](C)NCc2cccc(-c3cncnc3)c2)c1` [(1R)-1-(3-(methyloxy)phenyl)-N-((3-(5-pyrimidinyl)phenyl)methyl)ethanamine] was tested, and the EC50 was at most 10 µM.

With `COc1cccc([C@@H](C)NCc2cccc(-c3ccc(OC)nn3)c2)c1` [(1R)-1-(3-(methyloxy)phenyl)-N-((3-(6-(methyloxy)-3-pyridazinyl)phenyl)methyl)ethanamine] the EC50 was at most 10 µM.

`COc1cccc([C@@H](C)NCc2cccc(-c3ccc(C)nc3)c2)c1` [(1R)-1-(3-(methyloxy)phenyl)-N-((3-(6-methyl-3yridinyl)phenyl)methyl)ethanamine] gave an EC50 of at most 10 µM.

For `COc1cccc([C@@H](C)NCc2ccc(OC)c(-c3nccs3)c2)c1` [(1R)-1-(3-(methyloxy)phenyl)-N-((4-(methyloxy)-3-(1,3-thiazol-2-yl)phenyl)methyl)ethanamine], the EC50 was at most 10 µM.

`COc1cccc([C@@H](C)NCc2ccc(OC)c(-c3cnc(OCC(F)(F)F)nc3)c2)c1` [(1R)-1-(3-(methyloxy)phenyl)-N-((4-(methyloxy)-3-(2-((2,2,2-trifluoroethyl)oxy)-5-pyrimidinyl)phenyl)methyl)ethanamine] was tested, and the EC50 was at most 10 µM.

For `COc1cccc([C@@H](C)NCc2ccc(OC)c(-c3cnccn3)c2)c1` [(1R)-1-(3-(methyloxy)phenyl)-N-((4-(methyloxy)-3-(2-pyrazinyl)phenyl)methyl)ethanamine], the EC50 was at most 10 µM.

For `COc1cccc([C@@H](C)NCc2ccc(OC)c(-c3ncccn3)c2)c1` [(1R)-1-(3-(methyloxy)phenyl)-N-((4-(methyloxy)-3-(2-pyrimidinyl)phenyl)methyl)ethanamine], the EC50 was at most 10 µM.
